# Reference: patent US11612606B2, “8-aminoisoquinoline compounds and uses thereof” (priority 2018, dated 2023)
# Structures can show the parent of a compound that is named as a salt. Where two headings read alike, the source gives them in different places.
# Tests used:
# [1] = Pharmacokinetic study in rat; format: in vivo, Sprague Dawley rat; conditions: male, Sprague Dawley
# Method: Pharmacokinetic Study in Rat: Male Sprague Dawley rats obtained from Lingchang/Vital River Laboratory Animal Technology Co., Ltd., (Shanghai/Beijing, P.R. China) with body weight ranging between 200 g to 300 g were use in the PK studies. Group of 3 rats were given a 1 mg/kg intravenous bolus (IV) dose of the test article in solution formulation, and another group of 3 rats were given a 2 or 5 mg/kg oral (PO) dose of test article as a 0.5% methylcellulose with 0.2% Tween 80 (MCT) suspension or as a solution. Blood samples (250 μL, per time point) were collected serially via the catheter in femoral artery at 0.033, 0.083, 0.25, 0.5, 1, 2, 4, 6, and 8 hours after IV or PO administration from each of the rat. Blood samples were collected into pre-chilled tubes containing Potassium (K2) EDTA and centrifuged at 3,200 g for 10 minutes at 2 to 8° C. within 1 hour of collection to harvest plasma. Plasma samples were stored at −70° C. until LC/MS/MS analysis. Concentration in each plasma sample was determined by a non-validated LC/MS/MS. Data is acquired using multiple reaction monitoring (MRM) with specific transitions monitored for each compound.
# Following PO administration, percent bioavailability (% F) was determined for each animal by dividing the dose normalized area under the plasma concentration-time curve, extrapolated to infinity (AUCinf) obtained following each PO dose by the mean dose normalized AUCinf of the animals dosed by IV injection. All PK parameters are presented as mean±standard deviation (SD).
# Pharmacokinetic studies were conducted in rat for exemplary compounds of Formula (I).
# [2] = Permeability assay in gMDCKI cells; format: in vitro ADME, canine; conditions: dog, MDCK, apical-to-basolateral, 2-hour incubation, read-out: MDCK AB Papp
# Method: Cell permeability of compounds of interest was assessed in the gMDCKI cell line, which is a modified MDCKI (Madin-Darby canine kidney) originally acquired from American Type Culture Collection (Manassa, Va.) and generated at Genentech. […] Test article was tested at 10 μM in the apical-to-basolateral (A-B) and basolateral-to-apical (B-A) directions. Test compound was dissolved in transport buffer consisting of Hank's balanced salt solution and […] (Invitrogen Corporation, Grand Island, N.Y.). Transepithelial electrical resistance (TEER) and lucifer yellow (LY) permeability were used to monitor monolayer integrity at the beginning and the end of the experiments, respectively. Test articles were analyzed by LC-MS/MS.
# The efflux ratio (ER) is calculated as (Papp, B−A/Papp, A−B).
# Cell permeability were assessed for exemplary compounds of Formula (I).
# [3] = Hepatocyte stability assay; format: in vitro ADME; conditions: cryopreserved human hepatocytes (10 donor pool, suspension), scaled hepatic clearance, read-out: HHep Clearance
# Method: Metabolic stability of compounds are assessed using a hepatocyte stability assay. Cryopreserved human hepatocytes from a 10 donor pool are quickly thawed at 37° C., suspended in prewarmed In VitroGRO™ HT Medium, and then centrifuged at 100×g at room temperature for 10 min. The supernatants are discarded, and cells are resuspended in 5 mL Dulbecco's Modified Eagle Medium (DMEM) medium. Cell viability in suspension is counted on a Hepatometer® Vision (Lonza, N.C.), and viable cells are then adjusted to […] in DMEM. Compounds are first diluted to 2 μM with DMEM medium, and then aliquots of 125 μL of drug-containing medium are transferred to 96-well non-coated plates. Incubation is initiated by the addition of 125 μL of hepatocyte suspension to yield a total incubation volume of 250 μL. Final concentration of each compound is 1 μM, and final cell density is 0.5×10^6 cells/mL. Incubations are conducted in a humidified incubator at 37° C. Aliquots of 50 μL incubation medium are taken out at different time intervals (0, 60, 120 and 180 min), and immediately mixed with 100 μL of ice-cold acetonitrile containing 50 nM propranolol (internal standard). Samples are then centrifuged at 10,000×g for 10 min, and 80 μL of supernatant is taken out and diluted with 160 μL of water prior to LC/MS-MS analysis.
# Human hepatocyte stability was assessed for exemplary compounds of Formula (I) according to the above procedures.
# [4] = tested on: phosphorylation of SLP-76 (S376) by HPK-1 in human Jurkat cells; assay: pSLP76 assay (sandwich ELISA, anti-CD3 stimulated Jurkat cells); format: cell-based; conditions: Homo sapiens, read-out: pSLP76 IC50
# Method: Phospho-SLP76 (S376) is detected by sandwich ELISA using an anti-pSLP76(S376) capture antibody and a biotinylated anti-SLP76 detection antibody.
# Incubate Jurkat cells with varying concentrations of test compounds for 30 minutes in a humidified incubator at 37° C. and 5% CO2. Add anti-CD3 DynaBeads at a 4:1 bead:cell ratio. Stimulate cells in a humidified incubator at 37° C. and 5% CO2 for 10 minutes. Add cold lysis buffer and incubate on a shaker at 4° C. for 30 minutes. Transfer cell lysates to a pre-blocked ELISA plate coated with capture antibody. Incubate at room temperature shaking for 2 hours. Wash ELISA plate 5× with wash buffer and add 25 μl of biotinylated detection antibody at a final concentration of 0.5 μg/ml. Incubate at room temperature shaking for 1 hour. Wash ELISA plate 5× with wash buffer and add 25 μl of streptavidin enzyme conjugate at a final dilution of 1:8000. Incubate at room temperature shaking for 20 minutes. Wash ELISA plate 5× with wash buffer and add 25 μl of TMB substrate solution. Incubate at room temperature in the dark shaking for 20 minutes. Add 25 μl of STOP solution and read on SoftMax Pro for absorbance at 450 nm.
# Exemplary compounds of Formula (I) were tested in pSLP76 assays.
# [5] = biological target: HPK full length, T165E S171E (Homo sapiens (Human), UniProt Q92918, S171E/T165E); assay: HPK1-FL HTRF enzymatic assay ("HTRF"); format: biochemical; conditions: ATP 1 mM
# Sequence of HPK full length, T165E S171E (Q92918 whole entry T165E/S171E, looked up): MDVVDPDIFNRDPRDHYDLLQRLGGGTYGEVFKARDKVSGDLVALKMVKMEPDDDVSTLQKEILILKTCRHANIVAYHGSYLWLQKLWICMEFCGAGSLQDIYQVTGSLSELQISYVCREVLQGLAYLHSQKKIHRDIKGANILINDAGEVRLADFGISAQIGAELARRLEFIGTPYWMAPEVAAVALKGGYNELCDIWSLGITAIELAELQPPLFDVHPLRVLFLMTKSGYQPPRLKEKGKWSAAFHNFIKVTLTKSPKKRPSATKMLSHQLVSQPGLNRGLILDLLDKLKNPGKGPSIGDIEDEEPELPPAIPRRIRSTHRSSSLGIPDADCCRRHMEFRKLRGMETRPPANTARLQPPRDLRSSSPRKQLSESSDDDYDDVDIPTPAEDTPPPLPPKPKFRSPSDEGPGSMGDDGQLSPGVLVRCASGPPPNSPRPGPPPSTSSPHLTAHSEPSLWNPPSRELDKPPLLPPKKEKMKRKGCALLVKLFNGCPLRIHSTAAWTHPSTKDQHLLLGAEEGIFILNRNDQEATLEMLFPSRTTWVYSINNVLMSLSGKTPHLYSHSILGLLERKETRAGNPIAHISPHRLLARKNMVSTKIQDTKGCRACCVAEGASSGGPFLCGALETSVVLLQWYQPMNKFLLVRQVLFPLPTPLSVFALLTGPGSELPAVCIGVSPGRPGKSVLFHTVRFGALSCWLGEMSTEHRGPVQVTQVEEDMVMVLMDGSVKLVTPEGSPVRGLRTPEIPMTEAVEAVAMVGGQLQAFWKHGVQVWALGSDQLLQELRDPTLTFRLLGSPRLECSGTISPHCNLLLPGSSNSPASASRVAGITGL
# In short: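 HTRF detection of phosphorylated biotin-SLP-76 used Eu-anti-pSLP76 antibody and SA-XL665, read after 60 min. The kinase reaction ran 60 min at […], following a 30-min compound preincubation with the full-length enzyme.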
# [6] = tested on: primary human pan T cells; assay: Human T-cell IL2 induction assay; format: cell-based
# Method: Assay Principle: Anti-CD3 and anti-CD28 activates TCR signaling in primary human pan T cells leading to IL-2 promoter induction. Secreted IL-2 in cell culture supernatant is detected by electrochemiluminescence using a capture antibody against IL-2 and an anti-IL-2 antibody labeled with SULFO-tag. Also see www.mesoscale.com for additional electrochemiluminescence technology information.
# Assay Procedure: Incubate primary human pan T cells with varying concentrations of test compounds for 30 minutes in a humidified incubator at 37° C. and 5% CO2. Transfer cells to a plate pre-coated with a fixed concentration of anti-human CD3 (determined separately for each donor lot) and add soluble anti-human CD28 (final concentration=1 μg/ml). Stimulate cells in a humidified incubator at 37° C. and 5% CO2 for 4 hours. Transfer 25 μl of supernatant to a MSD single spot plate pre-coated with an anti-human IL-2 antibody. Incubate MSD plate overnight at 4° C. with gentle shaking. Wash MSD plate 4× with wash buffer. Add SULFO-tagged detection antibody at a 1:50 dilution and incubate at room temperature shaking for 2 hours. Wash MSD plate 4× with wash buffer and add 150 μl 2×MSD read buffer. Read on an MSD instrument. Normalize data to stimulated/untreated controls to calculate % activity at each concentration of compound.
# Instrumentation: • Biomek FX for liquid handling (Beckman Coulter) • MSD SECTOR S 600 (Meso Scale Discovery)
# Exemplary compounds of Formula (I) were tested in the human T-cell IL-2 induction assays.
# [7] = Jurkat cells, anti-CD3 stimulation
smiles,measurement,setting,value
"CCc1c(-c2cc3cc(NC(=O)O[C@@H]4COC[C@H]4C)ncc3c(N)c2F)cnc2c1NCCO2.Cl (single isomer, unassigned) [Compound 555b, (3S,4R)-4-Methyltetrahydrofuran-3-yl (8-amino-6-(8-ethyl-2,3-dihydro-1H-pyrido[2,3-b][1,4]oxazin-7-yl)-7-fluoroisoquinolin-3-yl)carbamate hydrochloride]",bioavailability,"[1]; in vivo, PO 2 mg/kg, 10% DMSO/60% PEG400/30% Water, Solution",34%
same,"Papp at 2 h, 10 μM",[2],15 ×10⁻⁶ cm/s
"CCc1c(-c2cc3cc(NC(=O)O[C@@H]4COC[C@H]4C)ncc3c(N)c2F)cnc2c1NCCO2.Cl (single isomer, unassigned) [Compound 555b, hydrochloride]",CLhep predicted at 1 μM,[3],13 mL/min/kg
same,IC50,[4]; [7],24 nM
same,Ki,[5]; read-out: HPK1 Ki,< 0.013 nM
"Cc1c(-c2cc3cc(NC(=O)OC4CCOCC4)ncc3c(N)c2F)cnc2c1NCCO2 [Compound 401, Tetrahydropyran-4-yl N-[8-amino-7-fluoro-6-(8-methyl-2,3-dihydro-1H-pyrido[2,3-b][1,4]oxazin-7-yl)-3-isoquinolyl]carbamate]",CLhep predicted at 1 μM,[3],9.2 mL/min/kg
same,bioavailability,"[1]; plasma, PO 5 mg/kg, MCT, Suspension",16%
same,"Papp at 2 h, 10 μM",[2],18 ×10⁻⁶ cm/s
same,IC50,[4]; Jurkat,97 nM
same,Ki,[5]; read-out: HPK1 Ki,0.019 nM
"Cc1c(-c2cc3cc(NC(=O)O[C@@H]4CCOC4)ncc3c(N)c2F)cnc2c1NCCO2 [Compound 403a, (R)-Tetrahydrofuran-3-yl (8-amino-7-fluoro-6-(8-methyl-2,3-dihydro-1H-pyrido[2,3-b][1,4]oxazin-7-yl)isoquinolin-3-yl)carbamate]",CLhep predicted at 1 μM,[3],7.7 mL/min/kg
same,bioavailability,"[1]; plasma, PO 5 mg/kg, 10/90 DMSO/MCT, Suspension",4%
same,"Papp at 2 h, 10 μM",[2],10 ×10⁻⁶ cm/s
same,IC50,[4]; [7],48 nM
same,Ki,[5]; HPK1 Ki,< 0.013 nM
"CC[C@]1(O)C[C@H](OC(=O)Nc2cc3cc(-c4cnc5c(c4C)NCCO5)c(F)c(N)c3cn2)C1 [Compound 512b, (1r,3s)-3-Ethyl-3-hydroxycyclobutyl (8-amino-7-fluoro-6-(8-methyl-2,3-dihydro-1H-pyrido[2,3-b][1,4]oxazin-7-yl)isoquinolin-3-yl)carbamate hydrochloride]",% IL-2 increase relative to untreated cells,[6]; assayed concentration 2.778 μM,2613%
same,Ki,"[5]; hydrochloride, read-out: HPK1 Ki",< 0.013 nM
"Cc1c(-c2cc3cc(NC(=O)O[C@H]4C[C@@](C)(O)[C@H]4C)ncc3c(N)c2F)cnc2c1NCCO2 [Compound 526b, (1S,2S,3R)-3-Hydroxy-2,3-dimethylcyclobutyl (8-amino-7-fluoro-6-(8-methyl-2,3-dihydro-1H-pyrido[2,3-b][1,4]oxazin-7-yl)isoquinolin-3-yl)carbamate]",% IL-2 increase relative to untreated cells,[6]; assayed concentration 2.778 μM,970%
same,Ki,[5]; read-out: HPK1 Ki,0.016 nM
"Cc1c(-c2cc3cc(NC(=O)O[C@H]4C[C@](C)(O)[C@@H]4C)ncc3c(N)c2F)cnc2c1NCCO2 [Compound 526c, (1S,2R,3S)-3-Hydroxy-2,3-dimethylcyclobutyl (8-amino-7-fluoro-6-(8-methyl-2,3-dihydro-1H-pyrido[2,3-b][1,4]oxazin-7-yl)isoquinolin-3-yl)carbamate]",% IL-2 increase relative to untreated cells,[6]; assayed concentration 2.778 μM,1677%
same,Ki,[5]; read-out: HPK1 Ki,0.015 nM
"Cc1c(-c2cc3cc(NC(=O)O[C@H]4CC[C@@H]4C#N)ncc3c(N)c2F)cnc2c1NCCO2 [Compound 535a, (1S,2R)-2-Cyanocyclobutyl (8-amino-7-fluoro-6-(8-methyl-2,3-dihydro-1H-pyrido[2,3-b][1,4]oxazin-7-yl)isoquinolin-3-yl)carbamate]",% IL-2 increase relative to untreated cells,[6]; assayed concentration 2.778 μM,831%
same,Ki,[5]; read-out: HPK1 Ki,< 0.013 nM
"Cc1c(-c2cc3cc(NC(=O)O[C@H]4C[C@H](N5CCOCC5)C4)ncc3c(N)c2F)cnc2c1NCCO2 [Compound 550a, (1r,3r)-3-Morpholinocyclobutyl (8-amino-7-fluoro-6-(8-methyl-2,3-dihydro-1H-pyrido[2,3-b][1,4]oxazin-7-yl)isoquinolin-3-yl)carbamate]",% IL-2 increase relative to untreated cells,[6]; assayed concentration 2.778 μM,1059%
same,Ki,[5]; read-out: HPK1 Ki,< 0.013 nM
"Cc1c(-c2cc3cc(NC(=O)NC4CCOCC4)ncc3c(N)c2F)cnc2c1NCCO2 [Compound 701, 1-(8-Amino-7-fluoro-6-(8-methyl-2,3-dihydro-1H-pyrido[2,3-b][1,4]oxazin-7-yl)isoquinolin-3-yl)-3-(tetrahydro-2H-pyran-4-yl)urea]",% IL-2 increase relative to untreated cells,[6]; assayed concentration 2.778 μM,4163%
same,Ki,[5]; read-out: HPK1 Ki,< 0.013 nM
"Cc1c(-c2cc3cc(NC(=O)N[C@H]4CCC[C@H]4F)ncc3c(N)c2F)cnc2c1NCCO2 [Compound 727b, 1-[8-Amino-7-fluoro-6-(8-methyl-2,3-dihydro-1H-pyrido[2,3-b][1,4]oxazin-7-yl)-3-isoquinolyl]-3-[(1S,2R)-2-fluorocyclopentyl]urea]",% IL-2 increase relative to untreated cells,[6]; assayed concentration 0.926 μM,938%
same,Ki,[5]; read-out: HPK1 Ki,< 0.013 nM
